Assay results: BindingDB's records for doi:10.1021/jm00103a005 (National Institute On Drug Abuse, 1993)
Counter-ions that a name gives are not always drawn.

What was measured:
[1] = target: Sigma non-opioid intracellular receptor 1 (Cavia porcellus) (UniProt Q60492); assay: Inhibition of specific binding of [3H]DTG to sigma binding site in Guinea pig brain membranes
[2] = target: Sigma non-opioid intracellular receptor 1 (Cavia porcellus) (UniProt Q60492); assay: Inhibition of specific binding of [3H]NANM of sigma binding site in Guinea pig brain membranes
[3] = target: Sigma non-opioid intracellular receptor 1 (Cavia porcellus) (UniProt Q60492); assay: Inhibition of specific binding of [125I]-PIPAG to sigma binding site in Guinea pig brain membranes
[4] = Inhibition of specific binding of [3H]DTG to sigma receptor in Guinea pig brain membranes
[5] = Inhibition of specific binding of [3H]3-PPP to sigma receptor in Guinea pig brain membranes
[6] = Inhibition of specific binding of [3H]3-PPP to sigma binding site in Guinea pig brain membranes

Chain of Sigma non-opioid intracellular receptor 1 (Cavia porcellus) (Q60492 whole entry, looked up): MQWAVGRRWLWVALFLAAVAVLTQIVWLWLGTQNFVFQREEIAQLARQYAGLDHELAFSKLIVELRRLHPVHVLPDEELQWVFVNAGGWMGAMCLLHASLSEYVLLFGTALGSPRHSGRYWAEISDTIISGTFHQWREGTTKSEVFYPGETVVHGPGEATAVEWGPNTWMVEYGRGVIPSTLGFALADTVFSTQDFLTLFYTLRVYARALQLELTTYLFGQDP

Structure (SMILES) | IC50 [1] [nM] | IC50 [2] [nM] | IC50 [3] [nM] | IC50 [4] [nM] | IC50 [5] [nM] | IC50 [6] [nM]
CN1CCc2cccc3c2[C@H]1Cc1ccc(O)c(O)c1-3 [APOKYN] | > 10000 | > 31000 | > 10000 |  |  | 
C=CCN1CC[C@]23c4c5ccc(O)c4O[C@H]2[C@@H](O)C=C[C@H]3[C@H]1C5 [NALORPHINE HYDROCHLORIDE] | 4000 | 1800 | 5000 | 625 | 93 | 2850
